Source: US20140179681A1, “METHODS AND COMPOSITIONS OF TARGETED DRUG DEVELOPMENT” (priority 2010, published 2014)
Like-named read-outs stand apart in the source and are kept apart here.

System: MDBK line
Test: MTT Cell Proliferation Assay, MDBK cells
Format: cell-based, bovine
Conditions: for IC50: Bos taurus, MDBK, Table 11, second of x/y(ratio): MDBK
Outline: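 Viability was measured by mitochondrial MTT reduction after cells were exposed to compound for 3 days in reduced-serum medium. Inhibition was calculated per plate against 0.5% DMSO controls.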

## CCc1cc2c(CN3CCN(Cc4ccc5c(c4)OCO5)CC3)cc(=O)oc2cc1O [AD4-1734]
Unit inferred, read-out: MTT Follow-up (second value)
  IC50: 40.2 µM
Unit not printed (doses in μM), read-out: MTT Screen (second value)
  IC50: 42.5 µM
Standard at 23.5 μM final concentration
  activity in MDBK cells: 0
Standard at 31.125 μM final concentration
  activity in MDBK cells: less than 50%
